Data on 7 compounds can be found in ChEMBL document CHEMBL1128685, “Novel and potent adenosine 3',5'-cyclic phosphate phosphodiesterase III inhibitors: thiazolo[4,5-b][1,6]naphthyridin-2-ones” (J Med Chem, 1995).

The test concerns the target Phosphodiesterase 3 (Homo sapiens, UniProt Q14432+Q13370). In words: Inhibition of cAMP PDE 3. The test is classed as protein assay.
As usually defined, the IC50 is the concentration at which inhibition is half-maximal. The low end stands for greater potency in that assay, the high end for weaker potency in that assay. Turning to `CC(C)Cc1nccc2nc3nc(O)sc3cc12`, the IC50 turned out to be 0.33 µM.

Consider `CCCc1nccc2nc3nc(O)sc3cc12`, for which the IC50 is 0.067 µM. The compound `Oc1nc2nc3ccnc(-c4ccccc4)c3cc2s1` returned an IC50 of 0.43 µM.

Consider `CCc1nccc2nc3nc(O)sc3cc12`, for which the IC50 was 0.022 µM. On to `Oc1ccc(-c2nccc3nc4nc(O)sc4cc23)cc1`, for which the IC50 was determined as 0.24 µM. Take `Cc1nccc2nc3nc(O)sc3cc12`: the IC50 came to 0.062 µM.

On to `O=[N+]([O-])c1cc(-c2nccc3nc4nc(O)sc4cc23)ccc1O`, for which the IC50 was 0.083 µM.
